Laboratory results: patent publication US20050203115A1, “Narcotic-NSAID ion pairs” (priority 2004, published 2005)
Where two headings read alike, the source gives them in different places.

Legend:
[1] = methanolic solution 61 mg/mL added to HCl 0.1 N
From the text: Measurements were obtained using a Sympatec HELOS model KF particle sizer with SUCELL and R5 lens (0.5-875 μm), pump, and stirrer speeds set to 50% of the maximum value.

[2] = approx. 48 mg in 400 mL, 36.8° C., approximately 12 hours
Procedure: The solutions were stirred by paddles at 150 RPM for approximately 12 hours. […] The standards and sample preparations were measured at 282 nm in a 1 cm cell using a UV spectrophotometer. The results were determined from the linearity curve generated from the standard data.

With CCC(=O)O[C@](Cc1ccccc1)(c1ccccc1)[C@H](C)CN(C)C.O=C(O)Cc1ccccc1Nc1c(Cl)cccc1Cl [Propoxyphene Diclofenate, (2S,3R)-(+)-4-(Dimethylamino)-3-methyl-1,2-diphenyl-2-butanol Propionate Diclofenate] the “Particle size Mean” value ([1]; 15 minutes) was 152.4 μm, the “Particle size ≦50%” value ([1]; 15 minutes) was 141.2 μm and the “Particle size ≦90%” value ([1]; 15 minutes) was 287.9 μm. The “Particle size Mean” value ([1]; 45 minutes) was 155.5 μm, the “Particle size ≦50%” value ([1]; 45 minutes) was 143.0 μm and the “Particle size ≦90%” value ([1]; 45 minutes) was 293.9 μm. For the same molecule, the “Particle size Mean” value ([1]; 75 minutes) was 161.7 μm, the “Particle size ≦50%” value ([1]; 75 minutes) was 140.5 μm and the “Particle size ≦90%” value ([1]; 75 minutes) was 308.6 μm. For the same molecule, the “Particle size Mean” value ([1]; 120 minutes) was 149.2 μm, the “Particle size ≦50%” value ([1]; 120 minutes) was 135.4 μm and the “Particle size ≦90%” value ([1]; 120 minutes) was 286.3 μm. The “Particle size Mean” value ([1]; 150 minutes) was 124.2 μm, the “Particle size ≦50%” value ([1]; 150 minutes) was 110.2 μm and the “Particle size ≦90%” value ([1]; 150 minutes) was 238.4 μm. The “% Dissolved” value ([2]; water pH 3) was 0.009%, the “mg Dissolved from 48 mg Solution” value ([2]; water pH 3) was 0.004 mg and the “mg/mL Dissolved” value ([2]; water pH 3) was 1.0528e-05 mg/mL. The “% Dissolved” value ([2]; water pH 5) was 74.878%, the “mg Dissolved from 48 mg Solution” value ([2]; water pH 5) was 36.005 mg and the “mg/mL Dissolved” value ([2]; water pH 5) was 0.09 mg/mL. The “% Dissolved” value ([2]; water pH 7) was 75.677%, the “mg Dissolved from 48 mg Solution” value ([2]; water pH 7) was 36.644 mg and the “mg/mL Dissolved” value ([2]; water pH 7) was 0.0916 mg/mL. For the same molecule, the “% Dissolved” value ([2]; water pH 9) was 71.168%, the “mg Dissolved from 48 mg Solution” value ([2]; water pH 9) was 34.018 mg and the “mg/mL Dissolved” value ([2]; water pH 9) was 0.08504 mg/mL. For the same molecule, the “% Dissolved” value ([2]; water pH 11) was 39.395%, the “mg Dissolved from 48 mg Solution” value ([2]; water pH 11) was 18.700 mg and the “mg/mL Dissolved” value ([2]; water pH 11) was 0.04676 mg/mL.
